Where “and” joins values, the source holds several entries; their conditions need not be identical. Equal values may be shown once.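 Briefly, cells in 96-well plates were exposed to five compound concentrations for 48 h, and endpoints were estimated by linear interpolation. Abbreviation: GI50, concentration required for 50% inhibition of growth. The concentration for full growth arrest is given as TGI.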
Tests used:
Assay in all cases: inhibition of tumour cell growth, NCI panel, 48 h
786-0 renal = system: 786-0 renal
CAKI-1 renal = system: CAKI-1 renal
K-562 leukemia = system: K-562 leukemia
MALME-3M melanoma = system: MALME-3M melanoma
MOLT-4 leukemia = system: MOLT-4 leukemia
NCI-H460 lung = system: NCI-H460 lung
SF-539 CNS = system: SF-539 CNS
SK-MEL-5 melanoma = system: SK-MEL-5 melanoma
SW-620 colon = system: SW-620 colon
T-47D breast = system: T-47D breast

Structure (SMILES) | GI50 (786-0 renal) | TGI (786-0 renal) | GI50 (CAKI-1 renal) | TGI (CAKI-1 renal) | GI50 (K-562 leukemia) | TGI (K-562 leukemia) | GI50 (MALME-3M melanoma) | TGI (MALME-3M melanoma) | GI50 (MOLT-4 leukemia) | TGI (MOLT-4 leukemia) | GI50 (NCI-H460 lung) | TGI (NCI-H460 lung) | GI50 (SF-539 CNS) | TGI (SF-539 CNS) | GI50 (SK-MEL-5 melanoma) | TGI (SK-MEL-5 melanoma) | GI50 (SW-620 colon) | TGI (SW-620 colon) | GI50 (T-47D breast) | TGI (T-47D breast)
CN(C)CCCNC(=O)c1cncnc1Nc1ccc(OCc2cccc(F)c2)c(Cl)c1 | 1.66 µM | 3.1 µM | 1660 nM | 3.05 µM | 1740 nM | 3.73 µM | 1640 nM | 3.02 µM | 1.67 µM | 3.4 µM | 1.71 µM | 3.13 µM | 1770 nM | 3.15 µM | 1.71 µM | 3.08 µM | 1.85 µM | 3.32 µM | 1.82 µM | 4.28 µM
CCS(=O)(=O)Nc1cccc(Nc2c3cccc(C)c3nc3c(C)cccc23)c1OC | 0.485 µM | 10.4 µM | 347 nM | 15.8 µM | 1550 nM | > 45.3 µM | 901 nM | > 47.4 µM | 0.166 µM | 4.23 µM | 0.104 µM | 4.6 µM | 708 nM | 6.23 µM | 1.1 µM | 8.21 µM | 0.979 µM | > 100 µM | 0.58 µM | > 30.4 µM
CCCCN(CCCC)CCCn1c(=O)c2c3ccccc3n(C)c2n2nnc(-c3ccccc3)c12 | 39 µM | > 100 µM | 49800 nM | > 100 µM | 13900 nM | > 100 µM | 28400 nM | 90 µM | 13.9 µM | > 100 µM | 41.2 µM | > 100 µM | 65300 nM | > 100 µM | 31.9 µM | > 100 µM | 26.5 µM | > 100 µM | 54.6 µM | > 100 µM
COc1cc(OC)c(NC(=O)c2cc3ccccc3cc2O)cc1Cl | 4.51 µM | > 100 µM | 1900 nM | 6.68 µM | 4420 nM | > 100 µM | 1890 nM | 6.04 µM | 3.98 µM | 30.3 µM | 2.43 µM | 5.82 µM | 3040 nM | 12.9 µM | 2.4 µM | 6.34 µM | 3.63 µM | 18.8 µM | 2.29 µM | > 100 µM
CCCCCCCCCCCCOC1C(C(CC(=O)N2CCN(c3cccc(C(F)(F)F)c3)CC2)NS(=O)(=O)c2cc(Cl)cc(Cl)c2)OC2OC(C)(C)OC21 (stereo not given) | > 100 µM | > 100 µM | > 100000 nM | > 100 µM | > 100000 nM | > 100 µM | > 100000 nM | > 100 µM | > 100 µM | > 100 µM | > 100 µM | > 100 µM | > 100000 nM | > 100 µM | > 100 µM | > 100 µM | > 100 µM | > 100 µM | > 100 µM | > 100 µM
CCCCCCc1nc2nc(Cl)c(Cl)nc2[nH]1 | > 100 µM | > 100 µM | 6370 nM | > 100 µM | 5290 nM | > 100 µM | 4630 nM | > 100 µM | 5.21 µM | > 100 µM | 5.59 µM | > 100 µM | > 100000 nM | > 100 µM | 2.61 µM | > 100 µM | > 100 µM | > 100 µM | 2.68 µM | > 100 µM
O=c1c2ccccc2c2ccccc2c(=O)n1Cc1ccc2c(c1)OCO2 |  | > 100 µM |  | > 100 µM |  | > 28 µM |  | > 100 µM |  | > 50.6 µM |  | > 100 µM |  | > 94.5 µM |  | > 100 µM |  | > 100 µM |  | > 100 µM
CCc1cc2c(cc1N1CCC(N3CCOCC3)CC1)C(C)(C)c1[nH]c3cc(C#N)ccc3c1C2=O | 1.87 µM and 1.71 µM | 4.01 µM and 3.76 µM and 3.46 µM | 1260 nM and 1280 nM and 1130 nM | 12.4 µM and 4.57 µM and 3.87 µM | 3760 nM and 2120 nM and 1940 nM | > 41.9 µM and 13.9 µM and > 10 µM | 1410 nM and 1400 nM and 2300 nM | 5.62 µM and 5.27 µM and > 10 µM | 1.57 µM and 0.973 µM and 1.38 µM | > 100 µM and 14.7 µM and > 10 µM | 1.47 µM and 1.74 µM and 1.68 µM | 4.03 µM and 4.17 µM and 7.64 µM | 1800 nM and 1580 nM and 1620 nM | 3.92 µM and 3.43 µM and 3.86 µM | 1.12 µM and 1.5 µM and 3 µM | 19.2 µM and 14.2 µM and > 10 µM | 0.924 µM and 1.26 µM and 1.08 µM | > 21.8 µM and 22 µM and > 10 µM | 2.2 µM and 1.94 µM and 2.18 µM | 10.9 µM and 5.32 µM and > 10 µM
COc1cc(-c2ncn(/C=C\C(=O)OC(C)C)n2)cc(C(F)(F)F)c1 | 0.101 µM and 0.098 µM | 2.61 µM and 3.25 µM | 46.4 nM and 33.1 nM | 12.7 µM and 5.52 µM | 51 nM and 60.8 nM | 10.2 µM and 16.2 µM | 149 nM and 147 nM | 12.9 µM and 15.3 µM | 0.0302 µM and 0.0282 µM |  | 0.0293 µM and 0.0327 µM | 11.1 µM and 1.4 µM | 14.6 nM and 18 nM | 0.225 µM and 0.187 µM | 0.274 µM and 0.11 µM | 1.8 µM and 2.72 µM | 0.0368 µM and 0.0441 µM | 6.58 µM and 5.38 µM | 0.12 µM and 0.0666 µM | 15 µM and 12 µM
O=C(NCc1ccncc1)C12CC3CC(C1)CC(c1ccc(Cl)cc1)(C3)C2 | 12.6 µM | 25.8 µM | 11900 nM | 24.9 µM | 6930 nM | 34.9 µM | 13300 nM | 27.4 µM | 8.15 µM | 27.2 µM | 14.8 µM | 28.6 µM | 14100 nM | 28.1 µM | 5.7 µM | 18.3 µM | 13.7 µM | 28.5 µM | 6.88 µM | 27.5 µM
NC1=NCCN1CC(=O)O | > 10000 µM | > 10000 µM |  | > 10000 µM |  | > 1000 µM |  | > 1000 µM | > 10000 µM | > 10000 µM | > 10000 µM | > 10000 µM |  | > 1000 µM | > 10000 µM | > 10000 µM | > 10000 µM | > 10000 µM | > 10000 µM | > 10000 µM
C/C(=C(\c1ccc(OCCN2CCCCCC2)cc1)c1ccc(OC(=O)Cc2ccccc2)cc1)c1ccc(Cl)cc1 | 1.78 µM | 3.85 µM | 2740 nM | 5.37 µM | 770 nM | 12.1 µM | 2860 nM | 5.71 µM | 3.09 µM | 13.4 µM | 2.64 µM | 5.2 µM | 2360 nM | 4.82 µM | 2.36 µM | 4.58 µM | 2.56 µM | 5.25 µM | 1.95 µM | 6.42 µM
COc1ccc(OC)c(-c2cc(=O)c3c(OC)c(OC)c(OC)c(OC)c3o2)c1 |  | 92.2 µM |  | > 100 µM |  | > 100 µM |  | > 100 µM |  | 63.2 µM |  | > 100 µM |  | > 100 µM |  | 39.1 µM |  | > 100 µM |  | 21.3 µM

From PubChem BioAssay (NCI)
